Laboratory results reported in patent US20080004561A1, “Method for Treating Oncological, Virulent and Somatic Diseases, Method for Controlling Treatment Efficiency, Pharmaceutical Agents and Composition for Carrying Out Said Treatment” (priority 2005, published 2008).

What was measured:
LLC tumor = LLC tumor growth under Doxorubicin, plasma DNA of chemotherapy-treated mice and DNase I (Example 14); format: in vivo, C57B1 mice
Description: Blood plasma DNA of tumor-bearing mice was received according to technique described above. Highly metastatic and low metastatic stains of mice' Luice lung carcinoma and Erlich carcinoma were used. Cells were cultivated in RPMI-1640 media with adding of 10% embryonic calf serum, 1% penicillin—streptomycin in 5% carbon dioxide atmosphere. For tumor induction in mice, cells were cultivated until the monolayer, than were detached with trypsin-EDTA solution. Cells were washed trice by centrifuging in phosphate buffer and were resuspensed until their concentration have become 0.5×10^7/ml. Viability was defined by inclusion of methylene blue in hemocytometer. Suspensions that contained 95% of viable cells were used for administration to animals.
Mice of C57B1 line and white not thoroughbred mice from “Rappolovo” animal house were used. Weight of animals was 24-26 grams. Animals were contained in cages, for 6-7 mice per one cage on a standard diet without water restriction. LLC cells in dose of 5×10^5 in 100 mkl of phosphate buffer were injected in soft tissues of thigh. Erlich tumor was subcutaneously replanted on the right side by injection of 0.2 ml 10% cells' suspension in isotonic sodium chloride solution.

P-glycoprotein = P-glycoprotein expression in Erlich carcinoma, immunohistochemical staining (Example 13); format: in vivo, mice; details: 5 day therapy from 3rd day: Doxorubicin 2 mg/kg intravenously daily, DNase I 0.5 mg/kg four times a day; tissue on 8th day
Procedure: Mice were subjected to course of 5 day therapy with Doxorubicin (2 mg/kg intravenously daily) or Doxorubicin+DNase I (0.5 mg/kg four times a day during 5 days)
Tissue preparations were executed on the 8th day of tumor's transplantation.

Erlich carcinoma = assay: Combined use of DNase and Doxorubicin, Erlich tumor growth (Example 3); format: in vivo, mice; details: Doxorubicin 2 mg/kg intravenously once a day and/or DNase 0.5 mg/kg intraperitoneally four times a day, day 3 to 7; 7th day after transplantation
Procedure: Bovine pancreatic DNase I (Fermentas) and human recombinant DNase […]) were used. DNase I solution for injections were prepared by dissolving of DNase matrix solution in sterile phosphate buffer directly before administration. […] Blood plasma DNA of tumor-bearing mice was received according to technique described above. Highly metastatic and low metastatic stains of mice' Luice lung carcinoma and Erlich carcinoma were used. […] For tumor induction in mice, cells were cultivated until the monolayer, than were detached with trypsin-EDTA solution. Cells were washed trice by centrifuging in phosphate buffer and were resuspensed until their concentration have become 0.5×10^7/ml. Viability was defined by inclusion of methylene blue in hemocytometer. […] Mice of C57B1 line and white not thoroughbred mice from “Rappolovo” animal house were used. Weight of animals was 24-26 grams. Animals were contained in cages, for 6-7 mice per one cage on a standard diet without water restriction. LLC cells in dose of 5×10^5 in 100 mkl of phosphate buffer were injected in soft tissues of thigh. […] Group 1-10 mice transplanted with Erlich carcinoma (control). Group 2-10 mice replanted with Erlich carcinoma. […] Group 3-10 mice replanted with Erlich carcinoma. […] Group 4-10 mice replanted with Erlich carcinoma. […] Results of experiments were estimated according to tumor's growth inhibition (TGI) that were expressed in percents to control data received at last day of DNase injection with standard formula using.

[1] = Toxic effect of human DNase I injection on animals; format: in vivo; details: single and multiple injection of up to 2.5 mg/kg
[2] = Influence of DNase I therapy on old rats' life time (Example 19); format: in vivo; details: 24 month old rats, 500 mg/kg intravenously 2 times a week during 2 months
Procedure: White not thoroughbred 24 month old rats were used in experiment. In the study group (10 animals) rats starting from the age of 24 months were subjected to intravenous administration of polysialated human DNase I at […] (equivalent dose of non-modified enzyme) 2 times a week during 2 months. Control group of animals got the administration of placebo. Average life time of rats from control group was 27.8 months. Average life time of rats from experimental group was 30.1 months.

Molecule: O=P1(N(CCCl)CCCl)NCCCO1 (centres unmarked) [Cyclophosphamide]
- tumor inhibition at day 8 (LLC tumor; mouse, in vivo): 30%

Molecule: COc1cccc2c1C(=O)c1c(O)c3c(c(O)c1C2=O)C[C@@](O)(C(=O)CO)C[C@@H]3O[C@H]1C[C@H](N)[C@H](O)[C@H](C)O1 [Doxorubicin]
- Tumor's size (LLC tumor; 8th day after transplantation, Doxorubicin 2 mg/kg i.v. daily day 3-8, DNA 0.05 mkg i.v. day 1 and 3 of treatment, DNase I 0.5 mg/kg i.p. 4 times a day, first and second days): 67 +/− 7
- tumor inhibition at day 8 (LLC tumor; Doxorubicin 2 mg/kg daily for 5 days from day 3, Cyclophosphamide 15 mg/kg intraperitoneally once on 3rd day): 50%
- P-glycoprotein expression in tumor tissue (P-glycoprotein): Multifocal expression
- T% (tumor's growth inhibition) (Erlich carcinoma): 42%
- Tumor's volume (Erlich carcinoma): 57 +/− 10

B1: human DNase I: human recombinant DNase I (Dornase; Gentech) (protein, UniProt P24855 23-282, looked up)
Deoxyribonuclease-1: LKIAAFNIQTFGETKMSNATLVSYIVQILSRYDIALVQEVRDSHLTAVGKLLDNLNQDAPDTYHYVVSEPLGRNSYKERYLFVYRPDQVSAVDSYYYDDGCEPCGNDTFNREPAIVRFFSRFTEVREFAIVPLHAAPGDAVAEIDALYDVYLDVQEKWGLEDVMLMGDFNAGCSYVRPSQWSSIRLWTSPTFQWLIPDSADTTATPTHCAYDRIVVAGMLLRGAVVPDSALPFNFQAAYGLSDQLAQAISDHYPVEVMLK
- Toxic effect on animals [1]: no toxic effect

B2: polysialated human DNase I: polysialated human DNase I, dose as equivalent of non-modified enzyme (protein, UniProt P24855 23-282, looked up)
Deoxyribonuclease-1: B1 Deoxyribonuclease-1
modifications: polysialylated
notes: polysialated human DNase I, dose as equivalent of non-modified enzyme
- Average life time [2]: 30.1 months
